Measured values as given in patent publication US9051311B2, “Sulfamide sodium channel inhibitors” (AMGEN INC., priority 2012, dated 2015).
Structures can show the parent of a compound that is named as a salt.

Assays:
[1] = target: T1, Nav 1.7 (Homo sapiens (Human), UniProt Q15858); assay: Nav 1.7 in vitro PatchExpress (PX) assay, whole cell voltage clamp; format: cell-based; details: 293 cells stably transfected with human Nav1.7; partially inactivated state (20 to 50% inactivation)
Description: Nav 1.7 In Vitro PatchExpress (PX) Assay
293 cells stably transfected with human Nav1.7 were recorded in whole cell voltage clamp mode with the PatchXpress automated electrophysiology system (Molecular Devices, LLC, Sunnyvale, Calif.). Compound effects were measured on a partially inactivated state of the sodium channel. Cells were clamped to a holding potential yielding 20 to 50% inactivation. To elicit sodium current, channels were activated by pulsing to −10 mV for 20 msec. This voltage protocol was repeated at a rate of 0.1 Hz throughout the experiment. A single concentration of test compound was applied to cells for a duration of 3 minutes. Peak sodium current was measured at the end of the compound addition period to determine percent inhibition.

[2] = target: Nav 1.5 (Homo sapiens (Human), UniProt Q14524); assay: cell-based;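 also: HEK293 cells stably expressing Nav1.5, sodium current at the 26th of 26 pulses to −20 mV (150 ms, 5 Hz) after compound versus before, leak-corrected, 3–8 min exposure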
Description: (§1) Nav 1.7 and Nav 1.5 Ion Works Quattro (IWQ) In Vitro Assays
(§2) 293 cells stably transfected with either Nav 1.7 or with Nav 1.5 were recorded in population patch-clamp mode with the IonWorks® Quattro automated electrophysiology system in accordance with the manufacturer's specifications (Molecular Devices, LLC, Sunnyvale, Calif.). Sodium channel currents were measured in response to a train of depolarizations that induced successively greater inactivation.
(§3) Cells were held at −110 mV for three seconds (Nav 1.7) or half a second (Nav 1.5) from a holding voltage of −15 mV, then put through a series of 26 pulses of 150 msec duration to −20 mV at a frequency of 5 Hz. Cells were then left unclamped for a period of 3 to 8 minutes while a single concentration of test compound was added. Cells were then reclamped and put through the same voltage protocol. Current at the end of the 26th pulse to −20 mV was subtracted from the peak current evoked by the 26th pulse to −20 mV to correct for leak current. Percent block was calculated for each concentration in duplicate, and IC50 curves were fitted to percent block as a function of concentration.

[3] = target: T1, Nav 1.7; assay: Nav 1.7 IonWorks Quattro (IWQ) in vitro assay, population patch-clamp; format: cell-based; details: 293 cells stably transfected with Nav 1.7; block at 26th pulse to −20 mV;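 also: cells held at −110 mV for 3 s, then 26 pulses of 150 ms at 5 Hz, leak-corrected peak current, percent block measured before and after compound, 3–8 min exposure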
Description: as §1, §2, §3

T1 sequence (Q15858 whole entry): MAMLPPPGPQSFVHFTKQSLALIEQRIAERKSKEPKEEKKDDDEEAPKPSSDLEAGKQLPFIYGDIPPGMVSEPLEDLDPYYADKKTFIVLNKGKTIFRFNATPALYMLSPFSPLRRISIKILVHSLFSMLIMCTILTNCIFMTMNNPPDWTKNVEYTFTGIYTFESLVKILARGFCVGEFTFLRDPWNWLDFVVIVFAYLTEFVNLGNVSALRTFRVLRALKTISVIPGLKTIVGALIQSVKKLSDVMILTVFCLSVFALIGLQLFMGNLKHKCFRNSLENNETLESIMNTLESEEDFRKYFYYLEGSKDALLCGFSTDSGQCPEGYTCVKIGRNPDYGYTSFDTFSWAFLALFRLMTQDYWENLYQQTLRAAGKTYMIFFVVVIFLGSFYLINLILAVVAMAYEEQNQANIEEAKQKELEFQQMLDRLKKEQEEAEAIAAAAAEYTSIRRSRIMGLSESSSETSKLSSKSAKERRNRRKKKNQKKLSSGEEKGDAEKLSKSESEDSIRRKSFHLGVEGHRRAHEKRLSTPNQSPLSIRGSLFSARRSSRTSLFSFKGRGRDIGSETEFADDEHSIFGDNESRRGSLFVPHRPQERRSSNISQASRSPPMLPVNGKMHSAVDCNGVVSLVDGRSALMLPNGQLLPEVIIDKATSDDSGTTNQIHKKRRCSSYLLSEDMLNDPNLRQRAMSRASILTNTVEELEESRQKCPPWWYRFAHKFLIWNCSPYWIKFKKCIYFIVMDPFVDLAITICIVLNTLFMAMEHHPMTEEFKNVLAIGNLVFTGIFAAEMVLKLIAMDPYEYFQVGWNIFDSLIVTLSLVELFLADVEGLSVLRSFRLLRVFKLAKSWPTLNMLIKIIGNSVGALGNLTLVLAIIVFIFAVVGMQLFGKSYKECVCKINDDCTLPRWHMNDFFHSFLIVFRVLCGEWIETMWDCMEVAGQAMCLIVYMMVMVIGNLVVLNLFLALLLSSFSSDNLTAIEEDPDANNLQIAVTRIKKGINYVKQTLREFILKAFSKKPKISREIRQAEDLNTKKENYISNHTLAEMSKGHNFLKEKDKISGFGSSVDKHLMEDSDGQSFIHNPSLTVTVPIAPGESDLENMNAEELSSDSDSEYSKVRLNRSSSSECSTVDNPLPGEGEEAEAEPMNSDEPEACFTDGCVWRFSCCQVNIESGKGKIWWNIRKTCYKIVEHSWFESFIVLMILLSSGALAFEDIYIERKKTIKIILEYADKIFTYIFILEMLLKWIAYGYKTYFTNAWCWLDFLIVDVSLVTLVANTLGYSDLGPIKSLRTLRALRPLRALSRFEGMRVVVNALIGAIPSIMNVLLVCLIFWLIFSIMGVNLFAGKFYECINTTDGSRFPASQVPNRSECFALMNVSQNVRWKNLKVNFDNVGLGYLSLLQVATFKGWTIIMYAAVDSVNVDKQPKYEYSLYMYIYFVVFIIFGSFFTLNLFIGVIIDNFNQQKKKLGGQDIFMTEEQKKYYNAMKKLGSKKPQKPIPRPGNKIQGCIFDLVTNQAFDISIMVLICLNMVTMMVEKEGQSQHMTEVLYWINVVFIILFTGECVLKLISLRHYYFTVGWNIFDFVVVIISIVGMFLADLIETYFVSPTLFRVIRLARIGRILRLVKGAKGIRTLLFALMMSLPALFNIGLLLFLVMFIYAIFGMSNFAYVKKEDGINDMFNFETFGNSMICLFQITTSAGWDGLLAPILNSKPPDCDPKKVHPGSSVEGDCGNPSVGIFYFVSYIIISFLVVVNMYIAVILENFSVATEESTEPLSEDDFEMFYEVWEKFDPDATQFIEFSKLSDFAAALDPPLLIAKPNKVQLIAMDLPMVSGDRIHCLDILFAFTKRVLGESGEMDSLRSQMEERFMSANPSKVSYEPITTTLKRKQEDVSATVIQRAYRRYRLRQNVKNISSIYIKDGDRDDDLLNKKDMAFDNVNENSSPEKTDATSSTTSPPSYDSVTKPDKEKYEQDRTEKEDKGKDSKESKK
Chain of Nav 1.5 (Q14524 whole entry): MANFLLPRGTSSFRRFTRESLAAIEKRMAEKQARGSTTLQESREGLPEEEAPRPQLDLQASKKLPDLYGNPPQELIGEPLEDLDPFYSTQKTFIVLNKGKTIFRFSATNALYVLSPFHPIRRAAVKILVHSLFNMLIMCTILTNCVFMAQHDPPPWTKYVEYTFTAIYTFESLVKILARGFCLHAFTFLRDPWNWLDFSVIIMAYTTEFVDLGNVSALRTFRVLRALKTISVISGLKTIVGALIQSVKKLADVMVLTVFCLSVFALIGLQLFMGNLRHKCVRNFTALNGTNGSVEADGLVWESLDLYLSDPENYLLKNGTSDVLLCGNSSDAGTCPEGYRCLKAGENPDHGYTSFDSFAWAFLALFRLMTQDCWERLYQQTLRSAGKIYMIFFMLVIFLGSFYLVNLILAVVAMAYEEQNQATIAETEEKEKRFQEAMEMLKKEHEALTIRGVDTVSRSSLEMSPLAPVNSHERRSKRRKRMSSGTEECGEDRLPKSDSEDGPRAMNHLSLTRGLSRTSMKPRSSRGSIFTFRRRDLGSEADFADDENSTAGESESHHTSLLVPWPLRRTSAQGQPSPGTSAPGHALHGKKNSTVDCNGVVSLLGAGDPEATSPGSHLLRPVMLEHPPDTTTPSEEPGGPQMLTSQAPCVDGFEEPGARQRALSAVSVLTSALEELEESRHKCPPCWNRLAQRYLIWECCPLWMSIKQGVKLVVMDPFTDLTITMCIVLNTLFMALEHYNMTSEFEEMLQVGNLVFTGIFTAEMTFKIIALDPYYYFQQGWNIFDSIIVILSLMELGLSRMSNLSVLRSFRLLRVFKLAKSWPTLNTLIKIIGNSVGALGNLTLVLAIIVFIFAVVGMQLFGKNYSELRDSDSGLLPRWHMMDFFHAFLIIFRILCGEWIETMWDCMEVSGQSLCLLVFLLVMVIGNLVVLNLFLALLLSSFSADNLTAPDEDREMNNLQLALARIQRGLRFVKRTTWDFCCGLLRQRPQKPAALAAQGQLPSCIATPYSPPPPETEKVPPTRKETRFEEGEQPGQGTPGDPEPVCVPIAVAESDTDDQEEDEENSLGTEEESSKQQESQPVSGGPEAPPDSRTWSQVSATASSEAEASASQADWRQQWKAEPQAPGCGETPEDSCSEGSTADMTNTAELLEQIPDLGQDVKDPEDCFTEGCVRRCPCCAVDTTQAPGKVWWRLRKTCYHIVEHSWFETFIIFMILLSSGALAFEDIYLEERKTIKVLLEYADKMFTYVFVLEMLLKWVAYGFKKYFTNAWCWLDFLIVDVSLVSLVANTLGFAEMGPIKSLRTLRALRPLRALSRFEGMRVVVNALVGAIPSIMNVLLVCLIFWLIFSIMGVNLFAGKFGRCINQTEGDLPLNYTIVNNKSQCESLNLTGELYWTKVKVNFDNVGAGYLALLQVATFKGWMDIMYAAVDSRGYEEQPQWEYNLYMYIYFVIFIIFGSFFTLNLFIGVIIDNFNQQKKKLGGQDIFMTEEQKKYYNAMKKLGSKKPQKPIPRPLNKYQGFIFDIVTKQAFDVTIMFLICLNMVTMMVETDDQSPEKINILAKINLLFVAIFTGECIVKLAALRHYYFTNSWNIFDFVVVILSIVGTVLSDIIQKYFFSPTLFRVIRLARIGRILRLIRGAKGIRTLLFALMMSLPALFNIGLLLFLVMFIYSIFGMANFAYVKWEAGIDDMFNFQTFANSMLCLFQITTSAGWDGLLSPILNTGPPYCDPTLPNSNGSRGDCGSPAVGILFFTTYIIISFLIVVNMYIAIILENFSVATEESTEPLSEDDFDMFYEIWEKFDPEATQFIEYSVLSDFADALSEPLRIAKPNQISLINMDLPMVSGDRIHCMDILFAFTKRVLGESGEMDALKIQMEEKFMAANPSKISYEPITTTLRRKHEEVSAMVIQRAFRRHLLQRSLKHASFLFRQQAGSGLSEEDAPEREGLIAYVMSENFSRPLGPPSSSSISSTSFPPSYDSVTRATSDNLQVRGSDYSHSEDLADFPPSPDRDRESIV

Structure (SMILES)	IC50 [1] [nM]	IC50 [2] [µM]	IC50 [3] [nM]
O=S(=O)(Nc1ncns1)N1CCc2c(cccc2-c2ccc(C(F)(F)F)cc2C2=CCOCC2)C1 [Example 19, 5-(2-(3,6-Dihydro-2H-pyran-4-yl)-4-(trifluoromethyl)phenyl)-N-(1,2,4-thiadiazol-5-yl)-3,4-dihydroisoquinoline-2(1H)-sulfonamide]	1710	> 10	378
O=S(=O)(Nc1ncns1)N1CCc2c(cccc2-c2ccc(C(F)(F)F)cc2-c2cccnc2)C1 [Example 22, 5-(2-(Pyridin-3-yl)-4-(trifluoromethyl)phenyl)-N-(1,2,4-thiadiazol-5-yl)-3,4-dihydroisoquinoline-2(1H)-sulfonamide]	470	> 10	80.5
O=S(=O)(Nc1ncns1)N1CCc2c(cccc2-c2ccc(C(F)(F)F)cc2-c2cncnc2)C1 [Example 23, 5-(2-(Pyrimidin-5-yl)-4-(trifluoromethyl)phenyl)-N-(1,2,4-thiadiazol-5-yl)-3,4-dihydroisoquinoline-2(1H)-sulfonamide]	800	> 10	186
O=S(=O)(Nc1ncns1)N1CCc2c(cccc2-c2cccc3ccccc23)C1 [Example 24, 5-(Naphthalen-1-yl)-N-(1,2,4-thiadiazol-5-yl)-3,4-dihydroisoquinoline-2(1H)-sulfonamide]	4910	> 10	2680
COc1ccc(-c2cccc3c2CCN(S(=O)(=O)Nc2ncns2)C3)c(OC)c1 [Example 26, 5-(2,4-Dimethoxyphenyl)-N-(1,2,4-thiadiazol-5-yl)-3,4-dihydroisoquinoline-2(1H)-sulfonamide]	2200	> 10	1510
COc1ccc(OC)c(-c2cccc3c2CCN(S(=O)(=O)Nc2ncns2)C3)c1 [Example 27, 5-(2,5-Dimethoxyphenyl)-N-(1,2,4-thiadiazol-5-yl)-3,4-dihydroisoquinoline-2(1H)-sulfonamide]	670	> 10	125
COc1cccc(OC)c1-c1cccc2c1CCN(S(=O)(=O)Nc1ncns1)C2 [Example 28, 5-(2,6-Dimethoxyphenyl)-N-(1,2,4-thiadiazol-5-yl)-3,4-dihydroisoquinoline-2(1H)-sulfonamide]	> 30000	> 10	4670
COc1ccc(F)cc1-c1cccc2c1CCN(S(=O)(=O)Nc1ncns1)C2 [Example 29, 5-(5-Fluoro-2-methoxyphenyl)-N-(1,2,4-thiadiazol-5-yl)-3,4-dihydroisoquinoline-2(1H)-sulfonamide]	370	> 10	62.8
COc1cc(F)ccc1-c1cccc2c1CCN(S(=O)(=O)Nc1ncns1)C2 [Example 30, 5-(4-Fluoro-2-methoxyphenyl)-N-(1,2,4-thiadiazol-5-yl)-3,4-dihydroisoquinoline-2(1H)-sulfonamide]	560	> 10	137
O=S(=O)(Nc1ncns1)N1CCc2c(cccc2-c2ccc(C(F)(F)F)cc2N2CCOCC2)C1 [Example 31, 5-(2-Morpholino-4-(trifluoromethyl)phenyl)-N-(1,2,4-thiadiazol-5-yl)-3,4-dihydroisoquinoline-2(1H)-sulfonamide]	1740	> 10	758
O=S(=O)(Nc1ncns1)N1CCc2c(cccc2-c2ccc(C(F)(F)F)cc2-n2ccnc2)C1 [Example 32, 5-(2-(1H-Imidazol-1-yl)-4-(trifluoromethyl)phenyl)-N-(1,2,4-thiadiazol-5-yl)-3,4-dihydroisoquinoline-2(1H)-sulfonamide]	220	6.68	25.8
O=S(=O)(Nc1ncc(F)s1)N1CCc2c(cccc2-c2ccc(C(F)(F)F)cc2C2=CCNCC2)C1 [Example 33, N-(5-Fluorothiazol-2-yl)-5-(2-(1,2,3,6-tetrahydropyridin-4-yl)-4-(trifluoromethyl)phenyl)-3,4-dihydroisoquinoline-2(1H)-sulfonamide hydrochloride]	190	> 10	351
O=S(=O)(Nc1ncns1)N1CCc2c(cccc2-c2ccc(C(F)(F)F)cc2C2=CCNC2)C1 [Example 34, 5-(2-(2,5-Dihydro-1H-pyrrol-3-yl)-4-(trifluoromethyl)phenyl)-N-(1,2,4-thiadiazol-5-yl)-3,4-dihydroisoquinoline-2(1H)-sulfonamide hydrochloride]	50	> 10	64.5
O=S(=O)(Nc1ncc(F)s1)N1CCc2c(cccc2-c2ccc(C(F)(F)F)cc2C2CCNCC2)C1 [Example 35, N-(5-Fluorothiazol-2-yl)-5-(2-(piperidin-4-yl)-4-(trifluoromethyl)phenyl)-3,4-dihydroisoquinoline-2(1H)-sulfonamide hydrochloride]	170	> 10	315
O=S(=O)(Nc1nccs1)N1CCc2c(cccc2-c2ccc(C(F)(F)F)cc2C2=CCNCC2)C1 [Example 36, 5-(2-(1,2,3,6-Tetrahydropyridin-4-yl)-4-(trifluoromethyl)phenyl)-N-(thiazol-2-yl)-3,4-dihydroisoquinoline-2(1H)-sulfonamide hydrochloride]	4680	> 10	1890
O=S(=O)(Nc1ccncn1)N1CCc2c(cccc2-c2ccc(C(F)(F)F)cc2C2=CCNCC2)C1 [Example 37, N-(Pyrimidin-4-yl)-5-(2-(1,2,3,6-tetrahydropyridin-4-yl)-4-(trifluoromethyl)phenyl)-3,4-dihydroisoquino line-2(1H)-sulfonamide]	19000	> 10	3940
O=S(=O)(Nc1ncc(F)s1)N1CCc2c(cccc2-c2ccc(C(F)(F)F)cc2-n2ccnc2)C1 [Example 38, 5-(2-(1H-Imidazol-1-yl)-4-(trifluoromethyl)phenyl)-N-(5-fluorothiazol-2-yl)-3,4-dihydroisoquinoline-2(1H)-sulfonamide]	690	> 10	91.7
CN1CC=C(c2cc(C(F)(F)F)ccc2-c2cccc3c2CCN(S(=O)(=O)Nc2ncc(F)s2)C3)CC1 [Example 39, N-(5-Fluorothiazol-2-yl)-5-(2-(1-methyl-1,2,3,6-tetrahydropyridin-4-yl)-4-(trifluoromethyl)phenyl)-3,4-dihydroisoquinoline-2(1H)-sulfonamide]	1170	> 10	240
CN1CC=C(c2ccc(C(F)(F)F)cc2-c2cccc3c2CCN(S(=O)(=O)Nc2ncc(F)s2)C3)CC1 [Example 40, N-(5-Fluorothiazol-2-yl)-5-(2-(1-methyl-1,2,3,6-tetrahydropyridin-4-yl)-5-(trifluoromethyl)phenyl)-3,4-dihydroisoquinoline-2(1H)-sulfonamide]	12100	> 10	2810
CN1CCN(c2cc(C(F)(F)F)ccc2-c2cccc3c2CCN(S(=O)(=O)Nc2ncc(F)s2)C3)CC1 [Example 41, N-(5-Fluorothiazol-2-yl)-5-(2-(4-methylpiperazin-1-yl)-4-(trifluoromethyl)phenyl)-3,4-dihydroisoquinoline-2(1H)-sulfonamide]	7340	> 10	395
Cc1cn(-c2cc(C(F)(F)F)ccc2-c2cccc3c2CCN(S(=O)(=O)Nc2ncc(F)s2)C3)cn1 [Example 42, N-(5-fluorothiazol-2-yl)-5-(2-(4-methyl-1H-imidazol-1-yl)-4-(trifluoromethyl)phenyl)-3,4-dihydroisoquinoline-2(1H)-sulfonamide]	1340	> 10	228
Cc1cncn1-c1cc(C(F)(F)F)ccc1-c1cccc2c1CCN(S(=O)(=O)Nc1ncc(F)s1)C2 [Example 43, N-(5-Fluorothiazol-2-yl)-5-(2-(5-methyl-1H-imidazol-1-yl)-4-(trifluoromethyl)phenyl)-3,4-dihydroisoquinoline-2(1H)-sulfonamide]	1920	> 10	171
COc1cc(C(F)(F)F)ccc1-c1cccc2c1CCN(S(=O)(=O)Nc1ncns1)C2 [Example 44, 5-(2-Methoxy-4-(trifluoromethyl)phenyl)-N-(1,2,4-thiadiazol-5-yl)-3,4-dihydroisoquinoline-2(1H)-sulfonamide]	260	> 10	135
COc1cc(C2CC2)ccc1-c1cccc2c1CCN(S(=O)(=O)Nc1ncns1)C2 [Example 45, 5-(4-Cyclopropyl-2-methoxyphenyl)-N-(1,2,4-thiadiazol-5-yl)-3,4-dihydroisoquinoline-2(1H)-sulfonamide]	870	> 10	67.5
COc1cc(C(F)(F)F)ccc1-c1nccc2c1CCN(S(=O)(=O)Nc1ncns1)C2 [Example 46, 5-(2-Methoxy-4-(trifluoromethyl)phenyl)-N-(1,2,4-thiadiazol-5-yl)-3,4-dihydro-2,6-naphthyridine-2(1H)-sulfonamide]	940	> 10	19
COc1cc(C2CC2)ccc1-c1nccc2c1CCN(S(=O)(=O)Nc1ncns1)C2 [Example 47, 5-(4-Cyclopropyl-2-methoxyphenyl)-N-(1,2,4-thiadiazol-5-yl)-3,4-dihydro-2,6-naphthyridine-2(1H)-sulfonamide]	560	> 10	59
